Experimental data taken from US9840494B2, “Quinazoline derivative” (Tianjin Hemay Oncology Pharmaceutical Co., Ltd., priority 2013, dated 2017).
Marks after values point to notes of the source that are not given here.

Columns and labels:
EGFR = target: T1, EGFR (Homo sapiens, UniProt P00533); experiment: Inhibitory effect on tyrosine kinase activity of EGFR; type: biochemical; details: EGFR 40 ng/ml, ATP 10 μM, 30 min
T1 construct: purchased Invitrogen Company PV3872
Experimental: EGFR: Invitrogen Company, Catalogue No. PV3872
pGT (poly(glutamic acid-tyrosine)): Sigma-Aldrich Company, Catalogue No. P0275
The assay method is briefly described as follows.
3.1.1 At 4° C., 96-well microtiter plate was coated with 0.2 mg/mL pGT (as the substrate of enzyme) dissolved in PBS (phosphate buffer) overnight. Unbound pGT was washed away with a washing solution (0.05% Tween −20 in PBS), and the plate was dried in the air at room temperature for 2 h.
3.1.2 The enzyme reaction was performed in 50 μl reaction system containing 50 mM HEPEs (N-(2-hydroxyethyl)piperazine-N′-2-ethanesulfonic acid), pH 7.5, 0.01% BRIJ-35 (polyoxyethylene lauryl ether), 10 mM MgCl2, 1 mM EGTA (ethylene glycol bis(2-aminoethyl ether)tetraacetic acid), with certain concentrations of ATP (adenosine triphosphate) and kinase, and proceeded for 30 min at room temperature. The phosphate group at the terminal of ATP can be transferred to tyrosine residues of pGT by kinase catalysis so as to phosphorylate the tyrosine residues.
3.1.3 A final concentration of 1% SDS (sodium dodecyl sulfate) was added to terminate the reaction. The phosphorylated tyrosine residues were identified using pY-20. HRP at the end of the antibody enabled TMB to take on color. Then equal amount of 2 N H2SO4 was added to terminate the reaction. OD value, which is positively correlated with the phosphorylation degree of tyrosine residues of pGT, was measured at 450 nm
3.2 The concentrations of the kinase and substrate ATP were determined with reference to the literature “Optimization of a LanthaScreen Kinase assay for EGFR (ErbB1)”(https://tools.lifetechnologies.com/content/sfs/manuals/EGFR_LanthaScreen_actity_Europium.pdf), published by Invitrogen Corporation. The selection criteria for the final concentrations are that the concentration of kinase enabling the yield of the product within the linear range of the detection system and the concentration of ATP approching Km (Michaelis constant) value.
3.3.1 An appropriate amount of a compound was dissolved in DMSO (dimethylsulfoxide) to prepare 2 mM stock solution. Then the stock solution was diluted with DMSO to obtain a working solution with a 50-fold concentration of the highest test concentration, and subjected to a 4-fold gradient dilution to obtain seven concentrations in total.
5 μl 10-fold concentration of ATP dissolved in H2O (the concentration of ATP in EGFR assay is 100 μM, and in Her2 assay is 400 μM) was added to initiate the enzyme reaction followed by reaction at room temperature for 30 min
The mean value of inhibition rate and SD (standard deviation) were determined by duplicate wells. A curve with the concentration of the compound as abscissa and being in logarithmic distribution and the mean value of inhibition rate as ordinate was plotted and fitted using four-parameter logistic function.

[1] = Bioavailability assay in rats, Experiment II (dihydrobromide); type: in vivo; details: Wistar rats
[2] = system: A431 human epidermal carcinoma xenograft; experiment: A431 human epidermal carcinoma xenograft model; type: in vivo, nude mice; details: A431 xenograft, 50 mg/kg intragastric once a day for 14 days
Experimental: (§1) Tumor cells were cultured in an incubator at 37° C. with 5% CO2 using MEM medium containing 10% inactivated fetal calf serum, 100 U/ml penicillin and 100 µg/ml streptomycin. The tumor cells in logarithmic growth phase were collected, adjusted to an appropriate density and injected subcutaneously into nude mice (0.2 ml per mouse). An xenograft model was established after a tumor was formed in the nude mice and passaged in vivo for more than three generations.
(§2) The above-mentioned tumor-bearing mice were sacrificed by cervical dislocation. The tumor was taken out and cut into small tumor pieces (about 2 mm×2 mm×2 mm) under sterile conditions. The small tumor pieces were inoculated subcutaneously into nude mice with a trocar. […] The animals in each group were subjected to intragastric administration once a day for 14 consecutive days. The day of grouping is assigned as day 0.
(§3) Tumor volume is calculated as: volume =0.5×long diameter×short diameter^2. The relative tumor volume (RTV) was calculated based on the measurements as: RTV=Vt/V0, wherein V0 is the tumor volume measured when the animals were grouped to be administrated (i.e., d0), and Vt is the tumor volume when each measurement was taken. Relative tumor proliferation rate T/C was calculated based on relative tumor volume, in which T is the mean value of the relative tumor volume of the treatment group, and C is the mean value of the relative tumor volume of the solvent control group. T/C was calculated as follows: T/C=TRTV/CRTV×100% (TRTV: RTV of the treatment group; CRTV:
RTV of the solvent control group) Inhibition rate (%)=(mean tumor weight of the solvent control group−mean tumor weight of the treatment group)/mean tumor weight of the solvent control group×100%. Percentage of body weight change=Wn/W0×100% (Wn: mean body weight of experimental animals in each group at day n, W0: mean body weight of experimental animals in each group at day 0).
(§4) One-Way ANOVA test was conducted in SPSS13.0, performing statistical analysis between groups.

[3] = system: FaDu human head and neck cancer xenograft; experiment: FaDu human head and neck cancer xenograft model; type: in vivo, nude mice; details: FaDu xenograft, 50 mg/kg intragastric daily for 14 days
Experimental: as §1, with “μg/ml” for “µg/ml”, “after” for “after a”
as §2, with “nude mice on the right shoulder blade with a” for “nude mice with a”, “intragastric administration daily for 14” for “intragastric administration once a day for 14”
as §3, with “volume=0.5×long” for “volume =0.5×long”, “CRTV: RTV of the solvent control group) Inhibition rate (%)=(mean tumor weight of the solvent control group−mean tumor weight of the treatment group)/mean tumor weight of the solvent control group×100%. Percentage of body weight change=Wn/W0×100% (Wn: mean body weight of experimental animals in each group at day n, W0: mean body weight of experimental animals in each group at day 0).” for “CRTV:”
as §4

[4] = system: HCC827 human non-small cell lung cancer xenograft; experiment: HCC827 human non-small cell lung cancer xenograft model; type: in vivo, nude mice; details: HCC827 xenograft, 50 mg/kg intragastric daily for 14 days
Experimental: as §1, with “μg/ml” for “µg/ml”
as §2, with “nude mice on the right shoulder blade with a” for “nude mice with a”, “intragastric administration daily for 14” for “intragastric administration once a day for 14”
as §3, with “volume=0.5×long” for “volume =0.5×long”, “CRTV: RTV of the solvent control group) Inhibition rate (%)=(mean tumor weight of the solvent control group−mean tumor weight of the treatment group)/mean tumor weight of the solvent control group x 100%. Percentage of body weight change=Wn/W0×100% (Wn: mean body weight of experimental animals in each group at day n, W0: mean body weight of experimental animals in each group at day 0).” for “CRTV:”
as §4

[5] = 20 mg/kg tail intravenous injection
[6] = both sexes, rat, plasma, po, 20 mg/kg intragastric gavage
[7] = both sexes, rat, plasma, 20 mg/kg tail intravenous injection

COCCOc1cc2ncnc(Nc3ccc(F)c(Cl)c3)c2cc1NC(=O)C=C1CCN(CCOC)CC1 [Compound 6, N-[4-(3-chloro-4-fluorophenylamino)-7-(2-methoxyethoxy)quinazolin-6-yl]-2-[1-(2-methoxyethyl)piperidin-4-ylidene]acetamide dinitrate]
IC50 (EGFR): 0.6 nM

COCCOc1cc2ncnc(Nc3ccc(F)c(Cl)c3)c2cc1NC(=O)C=C1CCN(CCOC)CC1 [Compound 8, N-[4-(3-chloro-4-fluorophenylamino)-7-(2-methoxyethoxy)quinazolin-6-yl]-2-[1-(2-methoxyethyl)piperidin-4-ylidene]acetamide diphenylsulfonate]
IC50 (EGFR): 0.8 nM

COCCOc1cc2ncnc(Nc3ccc(F)c(Cl)c3)c2cc1NC(=O)C=C1CCN(CCOC)CC1 [Compound 9, N-[4-(3-chloro-4-fluorophenylamino)-7-(2-methoxyethoxy)quinazolin-6-yl]-2-[1-(2-methoxyethyl)piperidin-4-ylidene]acetamide difumarate]
IC50 (EGFR): 0.5 nM

COCCOc1cc2ncnc(Nc3ccc(F)c(Cl)c3)c2cc1NC(=O)C=C1CCN(CCOC)CC1 [Compound 10, N-[4-(3-chloro-4-fluorophenylamino)-7-(2-methoxyethoxy)quinazolin-6-yl]-2-[1-(2-methoxyethyl)piperidin-4-ylidene]acetamide dimaleate]
IC50 (EGFR): 0.3 nM

COCCOc1cc2ncnc(Nc3ccc(F)c(Cl)c3)c2cc1NC(=O)C=C1CCN(CCOC)CC1 [Compound 11, N-[4-(3-chloro-4-fluorophenylamino)-7-(2-methoxyethoxy)quinazolin-6yl]-2-[1-(2-methoxyethyl)piperidin-4-ylidene]acetamide di(p-toluenesulfonate)]
IC50 (EGFR): 0.4 nM

Br.Br.COCCOc1cc2ncnc(Nc3ccc(F)c(Cl)c3)c2cc1NC(=O)C=C1CCN(CCOC)CC1 [Example 5, N-[4-(3-chloro-4-fluorophenylamino)-7-(2-methoxyethoxy)quinazolin-6-yl]-2-[1-(2-methoxyethyl)piperidin-4-ylidene]acetamide dihydrobromide]
CLz/F ([1]; 20 mg/kg intragastric gavage): 66.48 mL/min/kg
t½z ([1]; 20 mg/kg intragastric gavage): 5.564 h
CLz [1, 5]: 25.8 mL/min/kg
t½z [1, 5]: 5.514 h
bioavailability ([1]; both sexes, rat, plasma, oral, 20 mg/kg ig vs 20 mg/kg iv): 42.8%
AUC(0-inf) [1, 6]: 5550 ng·h/mL
AUC(0-t) [1, 6]: 5240 ng·h/mL
Cmax [1, 6]: 368 ng/mL
Tmax [1, 6]: 6 h
Vd/F ([1]; both sexes, rat, plasma, po, 20 mg/kg intragastric gavage, read-out: Vz/F): 30.1 L/kg
AUC(0-inf) [1, 7]: 13000 ng·h/mL
AUC(0-t) [1, 7]: 12700 ng·h/mL
Cmax [1, 7]: 3240 ng/mL
Tmax [1, 7]: 0.083 h
Vd ([1]; both sexes, rat, plasma, 20 mg/kg tail intravenous injection, read-out: Vz): 12.2 L/kg

C#Cc1cccc(Nc2ncnc3cc(OCCOC)c(OCCOC)cc23)c1 [Tarceva, reference compound]
Tumor Weight (x ± S.D.) [2]: 0.281 ± 0.252 g
Tumor Inhibitor Rate ([2]; by tumor weight): 62.0%
T/C ([2]; end of the assay): 47.3%
Tumor Volume (x ± S.D.) ([2]; end of the assay): 498.9 ± 263.4** mm^3
Tumor Weight (x ± S.D.) [3]: 0.650 ± 0.267 g
Tumor Inhibitor Rate ([3]; by tumor weight): 40.6%
T/C ([3]; end of the assay): 59.9%
Tumor Volume (x ± S.D.) ([3]; end of the assay): 709.9 ± 274.9** mm^3
Tumor Weight (x ± S.D.) [4]: 0.067 ± 0.055 g
T/C ([4]; end of the assay): 5.0%
Tumor Volume (x ± S.D.) ([4]; end of the assay): 55.3 ± 46.3*** mm^3

N-[4-(3-chloro-4-fluorophenylamino)-7-(2-methoxyethoxy)quinazolin-6yl]-2-[piperidin-4-ylidene]acetamide disulfate [Compound 5]
IC50 (EGFR): 0.3 nM
